Measurements published in patent publication US10758534B2 (Vertex Pharmaceuticals Incorporated, priority 2014, dated 2020).

Target: T1, F508del (Homo sapiens, UniProt P13569, DEL508-508)
T1 construct: expressed in transfected cells
Assay: Protocol 1: membrane potential optical assay (FLIPR III, voltage sensing dye), identification of potentiator compounds
Type: cell-based
Details: Table 3, compounds of Table 1
In short: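 Read-out: change in voltage-sensing dye fluorescence (FLIPR III) as a measure of F508del conductance. Temperature-corrected (27° C, 24 hrs) NIH 3T3 cells expressing F508del are pretreated with potentiators, dye-loaded, then stimulated with forskolin under a chloride ion gradient using chloride-free gluconate bath.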

T1 sequence (P13569 with tags, fused parts or gaps DEL508-508): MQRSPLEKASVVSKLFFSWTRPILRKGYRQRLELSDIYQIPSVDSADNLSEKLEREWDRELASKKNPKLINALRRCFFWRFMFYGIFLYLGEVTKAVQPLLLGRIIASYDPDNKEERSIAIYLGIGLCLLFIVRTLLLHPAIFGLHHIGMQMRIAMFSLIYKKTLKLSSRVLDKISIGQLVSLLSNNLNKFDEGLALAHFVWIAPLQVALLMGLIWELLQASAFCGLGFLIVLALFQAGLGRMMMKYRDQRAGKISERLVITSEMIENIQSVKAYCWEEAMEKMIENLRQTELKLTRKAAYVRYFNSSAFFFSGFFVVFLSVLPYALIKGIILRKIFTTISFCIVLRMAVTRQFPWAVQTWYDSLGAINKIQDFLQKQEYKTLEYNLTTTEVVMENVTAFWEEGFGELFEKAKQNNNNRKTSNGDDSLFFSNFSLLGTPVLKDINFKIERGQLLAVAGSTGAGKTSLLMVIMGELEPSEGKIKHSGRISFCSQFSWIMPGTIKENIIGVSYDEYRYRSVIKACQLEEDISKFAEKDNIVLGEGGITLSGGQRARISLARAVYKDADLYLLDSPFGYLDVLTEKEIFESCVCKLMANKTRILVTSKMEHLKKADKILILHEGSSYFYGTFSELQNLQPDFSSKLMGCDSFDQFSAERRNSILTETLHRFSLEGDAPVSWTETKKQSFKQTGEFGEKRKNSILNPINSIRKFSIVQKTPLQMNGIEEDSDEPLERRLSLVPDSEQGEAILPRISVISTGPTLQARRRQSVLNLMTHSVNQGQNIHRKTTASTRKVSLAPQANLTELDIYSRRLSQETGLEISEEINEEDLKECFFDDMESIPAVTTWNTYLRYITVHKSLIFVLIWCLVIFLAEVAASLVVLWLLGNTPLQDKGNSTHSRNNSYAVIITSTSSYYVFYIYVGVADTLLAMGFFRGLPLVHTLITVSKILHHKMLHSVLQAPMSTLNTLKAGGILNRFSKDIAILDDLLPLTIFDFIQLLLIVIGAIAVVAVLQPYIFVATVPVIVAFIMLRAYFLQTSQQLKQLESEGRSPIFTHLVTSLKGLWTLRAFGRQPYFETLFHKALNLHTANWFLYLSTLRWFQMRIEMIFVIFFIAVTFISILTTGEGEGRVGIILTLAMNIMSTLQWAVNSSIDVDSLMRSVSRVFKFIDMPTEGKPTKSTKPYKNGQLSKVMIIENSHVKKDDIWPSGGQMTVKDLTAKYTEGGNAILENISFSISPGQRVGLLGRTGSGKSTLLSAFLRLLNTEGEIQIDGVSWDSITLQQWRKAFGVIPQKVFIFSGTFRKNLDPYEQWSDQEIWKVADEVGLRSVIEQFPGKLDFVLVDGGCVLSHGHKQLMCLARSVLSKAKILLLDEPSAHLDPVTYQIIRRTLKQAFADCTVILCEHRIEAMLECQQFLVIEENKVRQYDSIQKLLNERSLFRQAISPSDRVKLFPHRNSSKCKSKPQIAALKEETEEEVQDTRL

Row | SMILES | EC30
1 | CC(C)COc1cc(F)cc(-c2ccc(C(=O)NS(=O)(=O)c3cccc(N)n3)c(N3CCC3C)n2)c1 (centres unmarked) [Compound 1840, N-[(6-amino-2-pyridyl)sulfonyl]-6-(3-fluoro-5-isobutoxy-phenyl)-2-(2-methylazetidin-1-yl)pyridine-3-carboxamide] | +++ (“+++” means <3 uM)
2 | Cc1cc(C)c(Oc2nc(C3CC(C)(C)CCC3=O)ccc2C(=O)NS(=O)(=O)c2cccc(N)n2)c(C)c1 (centres unmarked) [Compound 1427, N-[(6-amino-2-pyridyl)sulfonyl]-6-(5,5-dimethyl-2-oxo-cyclohexyl)-2-(2,4,6-trimethylphenoxy)pyridine-3-carboxamide] | +++ (“+++” means <3 uM)
3 | CC(=O)N(C)C1CCN(S(=O)(=O)NC(=O)c2ccc(-c3cc(F)cc(OCC(C)C)c3)nc2N2CC(C)CC2(C)C)C1 (centres unmarked) [Compound 1533, N—[3-[acetyl(methyl)amino]pyrrolidin-1-yl]sulfonyl-6-(3-fluoro-5-isobutoxy-phenyl)-2-(2,2,4-trimethylpyrrolidin-1-yl)pyridine-3-carboxamide] | +++ (“+++” means <3 uM)
4 | CC(C)COc1cc(F)cc(-c2ccc(C(=O)NS(=O)(=O)c3cccc(N)n3)c(N3CCC(C)(C)C3C)n2)c1 (centres unmarked) [Compound 1156, N-[(6-amino-2-pyridyl)sulfonyl]-6-(3-fluoro-5-isobutoxy-phenyl)-2-(2,3,3-trimethylpyrrolidin-1-yl)pyridine-3-carboxamide] | +++ (“+++” means <3 uM)
5 | CC(C)COc1cc(F)cc(-c2ccc(C(=O)NS(=O)(=O)c3cccc(N)n3)c(N3CCCC(C)(C)C3)n2)c1 [Compound 887, N-[(6-amino-2-pyridyl)sulfonyl]-2-(3,3-dimethyl-1-piperidyl)-6-(3-fluoro-5-isobutoxy-phenyl)pyridine-3-carboxamide] | +++ (“+++” means <3 uM)
6 | CC(C)(C)c1ccc(C(=O)NS(=O)(=O)c2ccc(N)cc2)c(C2=CCCCC2)n1 [Compound 880, N-(4-aminophenyl)sulfonyl-6-tert-butyl-2-(cyclohexen-1-yl)pyridine-3-carboxamide] | ++ (“++” means between 3 uM and 10 uM)
7 | Cc1ccc(-c2ccc(C(=O)NS(=O)(=O)N3CC[C@H](N)C3)c(N3C[C@@H](C)CC3(C)C)n2)c(F)c1 [Compound 1967, N-[(3S)-3-aminopyrrolidin-1-yl]sulfonyl-6-(2-fluoro-4-methyl-phenyl)-2-[(4S)-2,2,4-trimethylpyrrolidin-1-yl]pyridine-3-carboxamide] | ++ (“++” means between 3 uM and 10 uM)
8 | CCOc1cccc2c1CN(Cc1c(C)cc(C)cc1C)C2(C)C(=O)NS(=O)(=O)c1cccc(NC(=O)C(F)(F)F)n1 (centres unmarked) [Compound 1616, 4-ethoxy-1-methyl-N-[[6-[(2,2,2-trifluoroacetyl)amino]-2-pyridyl]sulfonyl]-2-[(2,4,6-trimethylphenyl)methyl]isoindoline-1-carboxamide] | +++ (“+++” means <3 uM)
9 | CCC1CCN(c2nc(-c3cc(F)cc(OCC(C)C)c3)ccc2C(=O)NS(=O)(=O)c2cccc(N)n2)C1 (centres unmarked) [Compound 931, N-[(6-amino-2-pyridyl)sulfonyl]-2-(3-ethylpyrrolidin-1-yl)-6-(3-fluoro-5-isobutoxy-phenyl)pyridine-3-carboxamide] | +++ (“+++” means <3 uM)
10 | Cc1ccc(-c2nc(C(C)(C)C)ccc2C(=O)NS(=O)(=O)c2ccccc2O)cc1 [Compound 1175, 6-tert-butyl-N-(2-hydroxyphenyl)sulfonyl-2-(p-tolyl)pyridine-3-carboxamide] | +++ (“+++” means <3 uM)
11 | Cc1cc(C)c(Oc2ncc(-c3ccccc3)cc2C(=O)NS(=O)(=O)c2cccc(N)c2)c(C)c1 [Compound 1321, N-(3-aminophenyl)sulfonyl-5-phenyl-2-(2,4,6-trimethylphenoxy)pyridine-3-carboxamide] | ++ (“++” means between 3 uM and 10 uM)
12 | CC(C)(C)COc1cccc(-c2ccc(C(=O)NS(=O)(=O)c3cccc(N)n3)c(N3CCCC3(C)C)n2)n1 [Compound 1328, N-[(6-amino-2-pyridyl)sulfonyl]-6-[6-(2,2-dimethylpropoxy)-2-pyridyl]-2-(2,2-dimethylpyrrolidin-1-yl)pyridine-3-carboxamide] | +++ (“+++” means <3 uM)

Other lines, results leading:

Row | EC30 | SMILES
13 | ++ (“++” means between 3 uM and 10 uM) | C[C@@H]1CN(c2ncc(C(F)(F)F)cc2C(=O)NS(=O)(=O)c2cccc(N)n2)C(C)(C)C1 [Compound 1550, N-[(6-amino-2-pyridyl)sulfonyl]-5-(trifluoromethyl)-2-[(4S)-2,2,4-trimethylpyrrolidin-1-yl]pyridine-3-carboxamide]
14 | ++ (“++” means between 3 uM and 10 uM) | COc1ccc(Oc2cccc(S(=O)(=O)NC(=O)c3cccnc3N3CC(C)CC3(C)C)n2)cc1OC (centres unmarked) [Compound 1761, N—[[6-(3,4-dimethoxyphenoxy)-2-pyridyl]sulfonyl]-2-(2,2,4-trimethylpyrrolidin-1-yl)pyridine-3-carboxamide]
15 | +++ (“+++” means <3 uM) | C[C@@H]1CN(c2nc(-c3cc(F)ccc3F)ccc2C(=O)NS(=O)(=O)c2ccc[nH]c2=O)C(C)(C)C1 [Compound 1954, 6-(2,5-difluorophenyl)-N-[(2-oxo-1H-pyridin-3-yl)sulfonyl]-2-[(4S)-2,2,4-trimethylpyrrolidin-1-yl]pyridine-3-carboxamide]
16 | +++ (“+++” means <3 uM) | CCOCCOc1cc(-c2ccc(C(=O)NS(=O)(=O)c3cccc(N)n3)c(N3C[C@@H](C)CC3(C)C)n2)cc(C)n1 [Compound 1948, N-[(6-amino-2-pyridyl)sulfonyl]-6-[2-(2-ethoxyethoxy)-6-methyl-4-pyridyl]-2-[(4S)-2,2,4-trimethylpyrrolidin-1-yl]pyridine-3-carboxamide]
17 | +++ (“+++” means <3 uM) | CC1CN(c2ncccc2C(=O)NS(=O)(=O)c2cccc(OCC3CCCCC3)n2)C(C)(C)C1 (centres unmarked) [Compound 1767, N—[[6-(cyclohexylmethoxy)-2-pyridyl]sulfonyl]-2-(2,2,4-trimethylpyrrolidin-1-yl)pyridine-3-carboxamide]
18 | +++ (“+++” means <3 uM) | CC1CN(c2ncc(-c3ccc(C(C)C)cc3)cc2C(=O)NS(=O)(=O)c2cccc(N)n2)C(C)(C)C1 (centres unmarked) [Compound 1809]
19 | +++ (“+++” means <3 uM) | CC1CN(c2ncccc2C(=O)NS(=O)(=O)c2cccc(NCc3ccc4c(c3)OCO4)n2)C(C)(C)C1 (centres unmarked) [Compound 1814, N—[[6-(1,3-benzodioxol-5-ylmethylamino)-2-pyridyl]sulfonyl]-2-(2,2,4-trimethylpyrrolidin-1-yl)pyridine-3-carboxamide]
20 | +++ (“+++” means <3 uM) | C[C@@H]1CN(c2nc(-c3cccc(OCC(C)(C)C)n3)ccc2C(=O)NS(=O)(=O)c2cccc(N)n2)C(C)(C)C1 [Compound 1663, N-[(6-amino-2-pyridyl)sulfonyl]-6-[6-(2,2-dimethylpropoxy)-2-pyridyl]-2-[(4S)-2,2,4-trimethylpyrrolidin-1-yl]pyridine-3-carboxamide]
21 | +++ (“+++” means <3 uM) | CC[C@H](C)Oc1ncc(-c2ccc(C(=O)NS(=O)(=O)c3cccc(N)n3)c(N3C[C@@H](C)CC3(C)C)n2)cc1C [Compound 1728, N-[(6-amino-2-pyridyl)sulfonyl]-6-[5-methyl-6-[(1 S)-1-methylpropoxy]-3-pyridyl]-2-[(4S)-2,2,4-trimethylpyrrolidin-1-yl]pyridine-3-carboxamide]
22 | +++ (“+++” means <3 uM) | Cc1ccc(-c2ccc(C(=O)NS(=O)(=O)c3cccc(N)n3)c(N3C[C@@H](C)CC3(C)C)n2)cc1F [Compound 1922, N-[(6-amino-2-pyridyl)sulfonyl]-6-(3-fluoro-4-methyl-phenyl)-2-[(4S)-2,2,4-trimethylpyrrolidin-1-yl]pyridine-3-carboxamide]
23 | ++ (“++” means between 3 uM and 10 uM) | C[C@@H]1CN(c2nc(C#N)ccc2C(=O)NS(=O)(=O)c2cccc(N)n2)C(C)(C)C1 [Compound 1564, N-[(6-amino-2-pyridyl)sulfonyl]-6-cyano-2-[(4S)-2,2,4-trimethylpyrrolidin-1-yl]pyridine-3-carboxamide]
24 | +++ (“+++” means <3 uM) | C[C@@H]1CN(c2nc(-c3ccccc3Cl)ccc2C(=O)NS(=O)(=O)c2ccc[nH]c2=O)C(C)(C)C1 [Compound 1784, 6-(2-chlorophenyl)-N-[(2-oxo-1H-pyridin-3-yl)sulfonyl]-2-[(4S)-2,2,4-trimethylpyrrolidin-1-yl]pyridine-3-carboxamide]
25 | +++ (“+++” means <3 uM) | CC(C)c1ccc(-c2ccc(C(=O)NS(=O)(=O)c3cccc(N)n3)c(N3C[C@H](C)CC3(C)C)n2)cc1 [Compound 890, N-[(6-amino-2-pyridyl)sulfonyl]-6-(4-isopropylphenyl)-2-[(4R)-2,2,4-trimethylpyrrolidin-1-yl]pyridine-3-carboxamide]
26 | +++ (“+++” means <3 uM) | CC1CN(c2ncccc2C(=O)NS(=O)(=O)c2cccc(N3Cc4cccc5cccc(c45)C3)n2)C(C)(C)C1 (centres unmarked) [Compound 1986, N—[[6-(1,3-dihydrobenzo[de]isoquinolin-2-yl)-2-pyridyl]sulfonyl]-2-(2,2,4-trimethylpyrrolidin-1-yl)pyridine-3-carboxamide]
27 | ++ (“++” means between 3 uM and 10 uM) | CC1CN(c2ncccc2C(=O)NS(=O)(=O)c2cccc(N3CCN(CC4OCCO4)CC3)n2)C(C)(C)C1 (centres unmarked) [Compound 1937, N—[[6-[4-(1,3-dioxolan-2-ylmethyl)piperazin-1-yl]-2-pyridyl]sulfonyl]-2-(2,2,4-trimethylpyrrolidin-1-yl)pyridine-3-carboxamide]
28 | ++ (“++” means between 3 uM and 10 uM) | CC(=O)N1CCC(c2ccc(C(=O)NS(=O)(=O)c3cccc(N)n3)c(N3C[C@@H](C)CC3(C)C)n2)CC1 [Compound 1634, 6-(1-acetyl-4-piperidyl)-N-[(6-amino-2-pyridyl)sulfonyl]-2-[(4S)-2,2,4-trimethylpyrrolidin-1-yl]pyridine-3-carboxamide]
29 | +++ (“+++” means <3 uM) | CC1CN(c2ncc(-c3ccccc3C(F)(F)F)cc2C(=O)NS(=O)(=O)c2cccc(N)n2)C(C)(C)C1 (centres unmarked) [Compound 1921, N-[(6-amino-2-pyridyl)sulfonyl]-5-[2-(trifluoromethyl)phenyl]-2-(2,2,4-trimethylpyrrolidin-1-yl)pyridine-3-carboxamide]
